Patent US11523610B2, “Regulating plant growth using a diapocarotenoid” (King Abdullah University of Science and Technology, priority 2018, dated 2022)

Columns and labels:
pDR5rev::GFP seedlings = assay: Confocal microscopy of pDR5rev::GFP auxin marker line; assay type: in vivo, Arabidopsis
Description: To examine pDR5Rev::GFP fluorescence at the collet region, live seedlings were directly used for laser scanning confocal microscopy (Zeiss LSM 510 microscope) examination.
For fluorescence intensity quantification of pDR5Rev::GFP and pPIN3::PIN3-GFP marker lines, ImageJ software (rsbweb.nih.gov/ij/) was used after taking confocal microscopy photos. All calculations are background subtracted.

[1] = test system: Arabidopsis seedlings (root gravitropism); assay: Root gravitropism of NPA treated seedlings; assay type: in vivo; settings: 5 DAG seedlings, 1 μM NPA plus 20 μM anchorene
Protocol: To determine if the effect of anchorene on ANR development is caused by changes in auxin distribution, the activity of anchorene in the presence of NPA was evaluated. […] Vertical grown 5 DAG seedlings on half MSO with indicated treatments were analyzed. The orientation of root growth was measured and then was assigned to one of twelve 30° sectors. […] The auxin efflux carrier PIN3 plays an important role in LR initiation and emergence. Therefore, the effect of anchorene on PIN3 using the pPIN3::PIN3-GFP marker line was examined.

[2] = test system: dark grown Arabidopsis seedlings; assay: Adventitious root assay; assay type: in vivo; settings: 5, 10, or 20 μM anchorene, 5 days
Description: ANRs were counted in seedlings vertically grown on half strength MS (with 0.5% sucrose +1% agar, 0.5 g/L MES, pH 5.7) media 8 days post-stratification (dps) using a dissection microscope. To investigate ANR formation after root apical meristems (RAM) excision (ANR-RE), RAM of seedlings were excised using sterile scalpels at 5 dps and then grown for another 3 days prior to counting the number of emerged ANRs. RAM of seedlings were excised at 8 dps and then grown for another 3 days prior to counting the number of emerged LRs. For determining the effect of anchorene on lateral roots, the number of emerged lateral roots were counted using a dissection microscope at 8 dps. For primary root length measurements, seedlings were measured using the publicly available ImageJ software (downloaded from rsbweb.nih.gov/ij/) after taking digital photographs. For adventitious root assay, the number of emerged adventitious roots per plant were counted after 5 days of treatment on plates with or without anchorene.
4-day-old dark grown Arabidopsis seedlings were transferred to plates with 5, 10, or 20 μM anchorene, or without. After 5 additional days of growth, the number of adventitious roots was determined for each seedling.

**Q.** Which results are given for `C\C(C=O)=C/C=C/C=C(\C)C=O` [anchorene, 12,12′-diapocarotene-12,12′-dial]?
**A.** GFP signal in ANR primordia, combined NF/anchorene treatment (pDR5rev::GFP seedlings; 1 μM NF plus 20 μM anchorene): clearly enhanced; GFP signal at the collet / ANR primordia (pDR5rev::GFP seedlings; single compound, 20 μM anchorene, 1 μM NF): strong GFP signal; gravitropism in NPA treated seedlings [1]: largely restored; number of adventitious roots [2]: significantly increases
